Laboratory results: PMC6692352, “DF2726A, a new IL-8 signalling inhibitor, is able to counteract chemotherapy-induced neuropathic pain” (Scientific Reports, 2019)
Entries after “also recorded” stand apart in the source; their conditions may differ.

How the values were obtained:
[1] = tested on: CXCL1-induced hPMN chemotaxis; test: CXCL1-induced hPMN chemotaxis, 48-well microchemotaxis chamber; assay type: cell-based, human; conditions: hPMN pre-incubated 15 min at 37°C, migration 45 min
From the text: chemotherapy-induced neuropathic pain”
Benedetti, Antonio Giordano, Annamaria Cimini, Marcello Allegretti.
Chemokines were from PeproTech (London, UK). Chemicals and cell culture reagents were from Sigma Aldrich (Saint Louis, MI, USA).
Cell isolation and culture
L’Aquila, Italy. Ethical clearance was obtained to perform these experiments. Human PMNs were […]
blood cells as previously described 1.
Cell viability, as measured by Trypan Blue dye exclusion, was greater than 98%. […]
microchemotaxis chamber, as previously described 2. Briefly, 25 µl of control medium (PBS for […]
the lower compartment of the chemotaxis chamber. […]
vehicle were seeded in the upper compartment. The two compartments were separated by 5 µm pre-size polycarbonate filter (polyvinylpyrrolidone-free for PMN chemotaxis). The chamber was […]
Physicochemical characterization […]
and a turbidity-sensing device. […]
water/HBSS to a final concentration of 10 μM. Cell membrane homogenates (48 μg protein) were […]

[2] = target: CYP 2C9 (Homo sapiens, UniProt P11712); test: CYP inhibition 2C9; assay type: in vitro ADME
Chain of CYP 2C9 (P11712 whole entry): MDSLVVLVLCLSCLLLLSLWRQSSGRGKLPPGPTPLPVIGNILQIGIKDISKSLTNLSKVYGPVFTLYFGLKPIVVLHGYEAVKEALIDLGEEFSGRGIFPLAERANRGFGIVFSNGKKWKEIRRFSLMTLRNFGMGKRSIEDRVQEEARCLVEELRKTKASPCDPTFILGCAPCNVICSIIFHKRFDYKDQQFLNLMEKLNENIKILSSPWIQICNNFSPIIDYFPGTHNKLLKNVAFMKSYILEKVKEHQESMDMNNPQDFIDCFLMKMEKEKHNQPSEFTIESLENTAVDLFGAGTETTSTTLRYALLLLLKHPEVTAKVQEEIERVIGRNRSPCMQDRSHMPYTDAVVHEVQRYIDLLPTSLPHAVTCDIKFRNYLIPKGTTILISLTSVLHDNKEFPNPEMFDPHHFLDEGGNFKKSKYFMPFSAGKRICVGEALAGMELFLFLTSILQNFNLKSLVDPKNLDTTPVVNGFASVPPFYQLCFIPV
From the text: Table 1 Physicochemical and in Vitro ADME Properties of DF2726A. | column: DF2726A

[3] = target: T1, P-glycoprotein (P-gp) (Homo sapiens, UniProt P08183); test: P-gp inhibition (Caco-2 cell assay); assay type: in vitro ADME
T1 construct: endogenous in cells; host or cells: Caco-2
T1 sequence (P08183 whole entry): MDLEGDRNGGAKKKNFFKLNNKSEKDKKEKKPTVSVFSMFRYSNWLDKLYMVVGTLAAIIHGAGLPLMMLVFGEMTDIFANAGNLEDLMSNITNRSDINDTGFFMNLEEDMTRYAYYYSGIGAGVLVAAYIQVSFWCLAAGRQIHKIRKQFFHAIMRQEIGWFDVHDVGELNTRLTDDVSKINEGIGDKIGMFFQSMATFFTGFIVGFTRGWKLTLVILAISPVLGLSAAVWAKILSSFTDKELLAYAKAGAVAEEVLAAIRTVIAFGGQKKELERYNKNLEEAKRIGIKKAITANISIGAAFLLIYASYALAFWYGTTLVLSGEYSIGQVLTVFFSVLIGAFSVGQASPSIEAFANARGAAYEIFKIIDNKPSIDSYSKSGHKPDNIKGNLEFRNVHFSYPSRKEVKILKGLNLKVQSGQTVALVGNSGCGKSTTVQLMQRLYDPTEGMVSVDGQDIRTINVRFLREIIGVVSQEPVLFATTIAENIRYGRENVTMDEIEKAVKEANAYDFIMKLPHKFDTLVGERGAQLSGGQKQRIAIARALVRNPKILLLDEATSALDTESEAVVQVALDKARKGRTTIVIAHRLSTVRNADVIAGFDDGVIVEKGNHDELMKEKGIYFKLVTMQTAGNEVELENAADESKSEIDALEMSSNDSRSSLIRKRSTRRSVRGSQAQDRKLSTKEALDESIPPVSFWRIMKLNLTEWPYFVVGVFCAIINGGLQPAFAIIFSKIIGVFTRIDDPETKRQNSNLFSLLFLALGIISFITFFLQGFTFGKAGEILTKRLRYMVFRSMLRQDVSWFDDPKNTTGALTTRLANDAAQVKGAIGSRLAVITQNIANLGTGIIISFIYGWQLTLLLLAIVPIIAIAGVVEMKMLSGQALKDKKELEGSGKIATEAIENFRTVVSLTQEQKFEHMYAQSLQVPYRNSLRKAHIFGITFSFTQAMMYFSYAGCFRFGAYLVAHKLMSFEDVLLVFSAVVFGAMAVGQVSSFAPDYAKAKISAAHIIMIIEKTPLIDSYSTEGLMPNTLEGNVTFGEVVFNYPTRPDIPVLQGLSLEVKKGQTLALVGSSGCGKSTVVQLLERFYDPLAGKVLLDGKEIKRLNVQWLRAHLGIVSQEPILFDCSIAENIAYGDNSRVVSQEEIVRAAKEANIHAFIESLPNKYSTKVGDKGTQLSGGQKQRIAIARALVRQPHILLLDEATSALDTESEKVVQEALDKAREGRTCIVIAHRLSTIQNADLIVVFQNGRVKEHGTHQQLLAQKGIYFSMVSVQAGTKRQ

[4] = tested on: acetylated α-tubulin; test: Acetylated α-tubulin in F11-derived neurons (immunofluorescence, western blotting); assay type: cell-based; conditions: 24 h

CC(C)(C(=O)O)c1ccc(Nc2nc(C(F)(F)F)cs2)cc1 [DF2726A] was tested, and the IC50 [1] was 8 nM, the IC50 [2] was > 30000 nM and the “P-glycoprotein (P-gp) inhibition” value [3] was “no P-glycoprotein (P-gp) inhibition”. For the same molecule, the “Acetylated α-tubulin in neurons treated with DF2726A alone” value ([4]; 1 µM, immunofluorescence) was “moderately present”, the “Acetylated α-tubulin in oxaliplatin-treated neurons, combination with DF2726A” value ([4]; DF2726A 1 µM + oxaliplatin 20 µM) was “counteracts chemotherapy-mediated effects; also recorded: comparable to that of control cells” and the “Acetylated α-tubulin in paclitaxel-treated neurons, combination with DF2726A” value ([4]; DF2726A + paclitaxel 10 nM) was “The same effect was observed; also recorded: comparable to that of control cells”.
